Test results from the NIST ThermoML archive (doi:10.1016/j.fluid.2017.12.010).
± gives the expanded uncertainty stated by the source.

Experiment: xn = mol fraction of the nth substance listed
Settings: Liquid, Vibrating tube method, x1 = 1

CCCCCCCCCC [decane] + CCCCCCCCCCCC
Settings	mass density [kg/m3]
283.55 K, 5000 kPa	742 ± 3
283.56 K, 3000 kPa	740 ± 3
283.56 K, 20000 kPa	752 ± 3
283.56 K, 30000 kPa	758 ± 3
283.56 K, 40000 kPa	763 ± 3
283.56 K, 50000 kPa	769 ± 3
283.56 K, 60000 kPa	774 ± 3
283.56 K, 70000 kPa	779 ± 3
283.56 K, 80000 kPa	783 ± 3
283.56 K, 90000 kPa	788 ± 3
283.57 K, 1000 kPa	739 ± 3
283.57 K, 10000 kPa	745 ± 3
283.58 K, 100 kPa	738 ± 3
293.48 K, 100 kPa	731 ± 3
293.48 K, 1000 kPa	731 ± 3
293.49 K, 5000 kPa	734 ± 3
293.49 K, 10000 kPa	738 ± 3
293.49 K, 20000 kPa	745 ± 3
293.5 K, 30000 kPa	751 ± 3
293.5 K, 40000 kPa	757 ± 3
293.5 K, 50000 kPa	763 ± 3
293.5 K, 100000 kPa	787 ± 3
293.51 K, 60000 kPa	768 ± 3
293.51 K, 70000 kPa	773 ± 3
293.51 K, 80000 kPa	778 ± 3
293.51 K, 90000 kPa	783 ± 3
303.42 K, 100 kPa	723 ± 3
303.42 K, 1000 kPa	724 ± 3
303.42 K, 10000 kPa	731 ± 3
303.42 K, 30000 kPa	745 ± 3
303.42 K, 40000 kPa	751 ± 3
303.42 K, 70000 kPa	768 ± 3
303.42 K, 80010 kPa	773 ± 3
303.42 K, 90000 kPa	777 ± 3
303.43 K, 5000 kPa	727 ± 3
303.43 K, 20000 kPa	738 ± 3
303.43 K, 50000 kPa	757 ± 3
303.43 K, 60000 kPa	762 ± 3
303.43 K, 100000 kPa	782 ± 3
313.35 K, 100 kPa	716 ± 3
313.35 K, 1000 kPa	717 ± 3
313.35 K, 5000 kPa	721 ± 3
313.35 K, 40000 kPa	746 ± 3
313.36 K, 20000 kPa	732 ± 3
313.36 K, 50000 kPa	752 ± 3
313.36 K, 70000 kPa	763 ± 3
313.36 K, 80000 kPa	768 ± 3
313.36 K, 90000 kPa	773 ± 3
313.36 K, 100000 kPa	777 ± 3
313.37 K, 10000 kPa	725 ± 3
313.37 K, 30000 kPa	739 ± 3
313.37 K, 60000 kPa	757 ± 3
323.24 K, 100 kPa	708 ± 3
323.24 K, 1000 kPa	709 ± 3
323.24 K, 100000 kPa	771 ± 3
323.25 K, 5000 kPa	712 ± 3
323.25 K, 10000 kPa	717 ± 3
323.25 K, 20000 kPa	725 ± 3
323.25 K, 30000 kPa	732 ± 3
323.25 K, 40000 kPa	739 ± 3
323.25 K, 50000 kPa	745 ± 3
323.25 K, 60000 kPa	751 ± 3
323.25 K, 70000 kPa	757 ± 3
323.25 K, 80000 kPa	762 ± 3
323.25 K, 90000 kPa	767 ± 3
333.12 K, 5000 kPa	705 ± 3
333.12 K, 10000 kPa	710 ± 3
333.12 K, 20000 kPa	718 ± 3
333.13 K, 100 kPa	700 ± 3
333.13 K, 1000 kPa	701 ± 3
333.13 K, 30000 kPa	726 ± 3
333.13 K, 80000 kPa	757 ± 3
333.13 K, 90000 kPa	762 ± 3
333.13 K, 100000 kPa	767 ± 3
333.14 K, 40000 kPa	733 ± 3
333.14 K, 50000 kPa	740 ± 3
333.14 K, 60000 kPa	746 ± 3
333.14 K, 70000 kPa	751 ± 3
343.01 K, 100 kPa	693 ± 3
343.01 K, 1000 kPa	694 ± 3
343.01 K, 10000 kPa	703 ± 3
343.01 K, 20000 kPa	712 ± 3
343.01 K, 30000 kPa	720 ± 3
343.01 K, 40000 kPa	727 ± 3
343.01 K, 50000 kPa	734 ± 3
343.01 K, 60000 kPa	740 ± 3
343.02 K, 5000 kPa	698 ± 3
343.02 K, 70000 kPa	746 ± 3
343.02 K, 80000 kPa	752 ± 3
343.02 K, 90000 kPa	757 ± 3
343.02 K, 100000 kPa	762 ± 3
352.87 K, 100 kPa	686 ± 3
352.87 K, 1000 kPa	687 ± 3
352.87 K, 5000 kPa	691 ± 3
352.88 K, 10000 kPa	696 ± 3
352.88 K, 20000 kPa	706 ± 3
352.88 K, 30000 kPa	714 ± 3
352.88 K, 40000 kPa	722 ± 3
352.88 K, 50000 kPa	729 ± 3
352.88 K, 60000 kPa	735 ± 3
352.89 K, 70000 kPa	741 ± 3
352.89 K, 80000 kPa	747 ± 3
352.89 K, 90000 kPa	753 ± 3
352.89 K, 100000 kPa	758 ± 3
362.69 K, 100 kPa	677 ± 3
362.69 K, 1000 kPa	678 ± 3
362.7 K, 5000 kPa	683 ± 3
362.7 K, 10000 kPa	689 ± 3
362.71 K, 20000 kPa	699 ± 3
362.71 K, 30000 kPa	708 ± 3
362.71 K, 40000 kPa	716 ± 3
362.71 K, 50000 kPa	723 ± 3
362.71 K, 60000 kPa	730 ± 3
362.72 K, 70000 kPa	736 ± 3
362.72 K, 80000 kPa	742 ± 3
362.72 K, 90000 kPa	747 ± 3
362.72 K, 100000 kPa	753 ± 3
